Assay results reported in patent publication US7320863B2 (Albert Einstein College of Medicine of Yeshiva University, priority 1996, dated 2008).

Legend:
[1] = molecular target: T1, rat sodium/iodide symporter (Rattus norvegicus, UniProt Q63008)
T1 sequence (Q63008 1-618): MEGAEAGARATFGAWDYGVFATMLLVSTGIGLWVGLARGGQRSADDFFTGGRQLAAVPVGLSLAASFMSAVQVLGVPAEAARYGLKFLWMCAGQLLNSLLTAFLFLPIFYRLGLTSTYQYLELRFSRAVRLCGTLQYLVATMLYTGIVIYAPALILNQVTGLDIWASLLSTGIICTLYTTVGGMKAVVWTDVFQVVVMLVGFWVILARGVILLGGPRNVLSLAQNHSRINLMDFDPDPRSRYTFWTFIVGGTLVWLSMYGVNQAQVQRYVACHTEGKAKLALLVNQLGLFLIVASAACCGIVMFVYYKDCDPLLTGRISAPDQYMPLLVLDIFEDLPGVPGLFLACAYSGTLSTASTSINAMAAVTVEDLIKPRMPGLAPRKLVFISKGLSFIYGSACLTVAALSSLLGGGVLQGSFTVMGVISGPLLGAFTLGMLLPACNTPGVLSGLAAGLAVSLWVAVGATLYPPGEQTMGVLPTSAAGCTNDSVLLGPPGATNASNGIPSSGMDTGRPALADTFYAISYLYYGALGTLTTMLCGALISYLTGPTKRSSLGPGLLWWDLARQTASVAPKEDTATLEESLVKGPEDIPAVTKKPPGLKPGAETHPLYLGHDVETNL
Method: Transcripts were injected into oocytes and oocytes were assayed for perchlorate-sensitive Na^+/I^− symport activity as described in Weiss, et al., supra.
Control assays were carried out in oocytes microinjected with water (lane-1). Na^+-dependence was ascertained by using choline in place of Na^+, and perchlorate sensitivity was tested by conducting assays in the presence of both Na+ and perchlorate.

[2] = molecular target: T1, rat sodium/iodide symporter; test: Iodide accumulation in COS cells transfected with sodium/iodide symporter cDNA; format: cell-based; parameters: Beginning with Met at position 1, a long open reading frame codes for a protein of 618 amino acids; expressed in transfected cells; host or cells: Xenopus laevis oocytes microinjected with cRNA transcribed in vitro (T7 RNA polymerase) from the cDNA clone in pSPORT; conditions: COS cells transfected with symporter cDNA clone, assayed 48 h after transfection
Method: In FIG. 1A oocytes were microinjected with water (lane 1), 50 ng mRNA from FRTL-5 cells (lane 2), or approximately 20 ng cRNA transcripts made in vitro from pools containing the indicated number of cDNA clones (lanes 3-7, numbers without parentheses at bottom of FIG. 1A). […] Inset: Double reciprocal plot. […] Each point represents the average of triplicate determinations+/−SE.
A directional cDNA library was prepared in the PSPORT (BRL) vector from poly A^+ RNA isolated from FRTL-5 cells. cRNAs were synthesized in vitro using T7 RNA polymerase in the presence of m^7 GpppG from pools of cDNA clones. Transcripts were injected into oocytes and oocytes were assayed for perchlorate-sensitive Na^+/I^− symport activity as described in Weiss, et al., supra.

Row | SMILES | generated iodide concentration gradient ([1]; 50 μM iodide in transport solution, functional volume 0.5 μl/oocyte) [fold] | Na+/I- symport activity in the presence of perchlorate ([1]; assayed in the presence of both Na+ and perchlorate, 45 min) | perchlorate sensitivity of Na+/I- symport activity [2]
1 | I [iodide] | > 30 |  | 
2 | [O-][Cl+3]([O-])([O-])O [perchlorate] |  | virtually indistinguishable from background | perchlorate-sensitive
